Test results published in patent US20140323577A1, “METHODS FOR REDUCING THE RISK OF CONVERSION TO CLINICALLY DEFINITE MULTIPLE SCLEROSIS” (Sanofi-Aventis U.S. LLC, priority 2013, published 2014).

Assays:
Type in all cases: in vivo, human
[1] = system: patients with a first clinical episode suggestive of multiple sclerosis; assay: Study treatment discontinuation and tolerability, same study
Description: (§1) Methodology: This was a multi-center, multinational, randomized, placebo-controlled, double blind, parallel group (3 groups) study stratified by center and baseline monofocal/multifocal status.
454 (73.9%) patients completed 108 weeks of study treatment or entered the extension: 71.6% in the placebo group, 73.2% in the teriflunomide 7 mg group, and 75.5% in the teriflunomide 14 mg group. […] The mean (±SD) age was 32.1 (±8.5) years and the study population was primarily Caucasian (96.1%).

[2] = system: patients with a first clinical episode suggestive of multiple sclerosis; assay: Time to conversion to DMS (dissemination of MRI lesions in time or a relapse), same study; details: for Hazard ratio (95% CI), time to conversion to DMS: Cox proportional hazard model; for Number of patients with conversion to DMS / Number of patients who were censored (time to conversion to DMS) / Number of patients with conversion to DMS: Dissemination of MRI lesion in time / Number of patients with conversion to DMS: Relapse: number (%); for Number of patients who were censored (time to conversion to DMS) / Number of patients with conversion to DMS: Dissemination of MRI lesion in time / Number of patients with conversion to DMS: Relapse / Kaplan-Meier estimates of probability of conversion to DMS (95% CI): ITT
Source text: as §1
(§2) Diagnosis and criteria for inclusion: Patients with a first acute or subacute, well-defined neurological event consistent with demyelination with onset of MS symptoms occurring within 90 days of randomization; and abnormal MRI with 2 or more T2 lesions at least 3 mm in diameter that are characteristic of MS.
(§3) Statistical methods: Analysis population: Efficacy analyses were based on the intent-to-treat (ITT) population consisting of all randomized patients, as randomized, who had at least 1 day exposure to study medication.
(§4) The key secondary endpoint was analyzed using the same Cox regression model. ARR was analyzed using a Poisson regression model with robust error variance including the number of confirmed relapses with their onset between randomization date and last dose date as the response variable, treatment, region, and baseline monofocal/multifocal status as covariates, and log transformed standardized exposure duration as an offset variable.
(§5) Multiplicity procedure: Step down approach was used for multiplicity adjustment for 2 doses of teriflunomide and the primary and key secondary endpoints. Treatment comparison of teriflunomide 14 mg vs. placebo in time to conversion to CDMS was tested at 5% significance level. If significant, comparison of teriflunomide 7 mg vs. placebo in time to conversion to CDMS was tested at 5% significance level. If significant, comparison of teriflunomide 14 mg vs. placebo for the key secondary endpoint was tested at 5% significance level. If significant, comparison of teriflunomide 7 mg vs. placebo for the key secondary endpoint was tested at 5% significance level.

[3] = system: patients with a first clinical episode suggestive of multiple sclerosis; assay: Time to conversion to CDMS, randomized double-blind placebo-controlled study; details: for Hazard ratio (95% CI), time to conversion to CDMS: Cox proportional hazard model; for Number of patients who were censored (time to conversion to CDMS) / Number of patients with conversion to CDMS: number (%); for Kaplan-Meier estimates of probability of conversion to CDMS (95% CI): ITT
Source text: as §1, §2
Efficacy/pharmacodynamics: The primary efficacy variable was time to CDMS defined by the occurrence of a relapse: new neurological abnormality separated by at least 30 days from onset of a preceding clinical event, present for at least 24 hours and occurring in the absence of fever or known infection.
as §3
Efficacy analysis: The primary analysis of time to conversion to CDMS was performed using Cox regression model with treatment, region, and baseline monofocal/multifocal status as independent variables. The assessment of efficacy was based on (pairwise) hazard rate ratio comparisons of each active dose of teriflunomide versus placebo. Two-sided 95% confidence intervals of the hazard rates ratio were provided for each teriflunomide treatment effect estimate versus placebo. The log-rank test was provided as supportive.
as §5

[4] = system: patients with a first clinical episode suggestive of multiple sclerosis; assay: Confirmed MS relapse / annualized relapse rate (ARR), same study; details: for Unadjusted annualized relapses rate / Total number of relapses / Number of patients with ≧1 relapses: No / Number of relapses: 0 (patients) / Number of relapses: 1 (patients) / Number of relapses: 2 (patients) / Number of relapses: >=3 (patients): ITT; for Number of patients with ≧1 relapses: Yes / Number of patients with ≧1 relapses: No / Number of relapses: 0 (patients) / Number of relapses: 1 (patients) / Number of relapses: 2 (patients) / Number of relapses: >=3 (patients): number (%); for Risk reduction of on-treatment adjusted ARR relative to placebo: non-statistically significant
Source text: as §1, §2, §3, §4

[5] = 7 mg once daily, randomized population (N = 205)
[6] = 14 mg once daily, randomized population (N = 216)
[7] = 14 mg once daily, ITT (N = 214)

C/C(O)=C(\C#N)C(=O)Nc1ccc(C(F)(F)F)cc1 [teriflunomide, (Z)-2-cyano-3-hydroxy-but-2-enoic acid-(4′-trifluoromethylphenyl)-amide]
Study treatment discontinuation: Adverse event (number of patients) [1, 5]: 25
Study treatment discontinuation: Death (number of patients) [1, 5]: 0
Study treatment discontinuation: Lack of efficacy [1, 5]: (2.9%)
Study treatment discontinuation: Lack of efficacy (number of patients) [1, 5]: 6
Study treatment discontinuation: Progressive Disease [1, 5]: (0.5%)
Study treatment discontinuation: Progressive Disease (number of patients) [1, 5]: 1
Study treatment discontinuation: Adverse event (number of patients) [1, 6]: 18
Study treatment discontinuation: Death (number of patients) [1, 6]: 0
Study treatment discontinuation: Lack of efficacy [1, 6]: (5.6%)
Study treatment discontinuation: Lack of efficacy (number of patients) [1, 6]: 12
Study treatment discontinuation: Progressive Disease (number of patients) [1, 6]: 0
Tolerability / safety profile ([1]; both doses (7 mg and 14 mg once daily)): well tolerated with a manageable safety profile
Hazard ratio (95% CI), time to conversion to DMS ([2]; 7 mg once daily vs placebo, P-value 0.0020, log-rank P 0.0028): 0.686
Number of patients with conversion to DMS ([2]; 7 mg once daily, ITT (N = 203)): 125 (61.6%)
Number of patients who were censored (time to conversion to DMS) ([2]; 7 mg once daily): 78 (38.4%)
Number of patients with conversion to DMS: Dissemination of MRI lesion in time ([2]; 7 mg once daily): 110 (54.2%)
Number of patients with conversion to DMS: Relapse ([2]; 7 mg once daily): 15 (7.4%)
Kaplan-Meier estimates of probability of conversion to DMS (95% CI) ([2]; 7 mg once daily, at 24 weeks): 0.457
Kaplan-Meier estimates of probability of conversion to DMS (95% CI) ([2]; 7 mg once daily, at 48 weeks): 0.573
Estimated cumulative rate of conversion to DMS (dissemination of MRI lesions in time or confirmed relapse) ([2]; 7 mg once daily, at 108 weeks): 73.3%
Kaplan-Meier estimates of probability of conversion to DMS (95% CI) ([2]; 7 mg once daily, at 108 weeks): 0.733
Reduction of the risk of conversion to DMS (dissemination of MRI lesions in time or a relapse) compared to placebo ([2]; 7 mg once daily, p=0.0020): 31.4%
Hazard ratio (95% CI), time to conversion to DMS ([2]; 14 mg once daily vs placebo, P-value 0.0003, log-rank P 0.0002): 0.651
Number of patients with conversion to DMS [2, 7]: 136 (63.6%)
Number of patients who were censored (time to conversion to DMS) ([2]; 14 mg once daily): 78 (36.4%)
Number of patients with conversion to DMS: Dissemination of MRI lesion in time ([2]; 14 mg once daily): 111 (51.9%)
Number of patients with conversion to DMS: Relapse ([2]; 14 mg once daily): 25 (11.7%)
Kaplan-Meier estimates of probability of conversion to DMS (95% CI) ([2]; 14 mg once daily, at 24 weeks): 0.460
Kaplan-Meier estimates of probability of conversion to DMS (95% CI) ([2]; 14 mg once daily, at 48 weeks): 0.578
Estimated cumulative rate of conversion to DMS (dissemination of MRI lesions in time or confirmed relapse) ([2]; 14 mg once daily, at 108 weeks): 71.5%
Kaplan-Meier estimates of probability of conversion to DMS (95% CI) ([2]; 14 mg once daily, at 108 weeks): 0.715
Reduction of the risk of conversion to DMS (dissemination of MRI lesions in time or a relapse) compared to placebo ([2]; 14 mg once daily, p=0.0003): 34.9%
Hazard ratio (95% CI), time to conversion to CDMS ([3]; 7 mg once daily vs placebo, P-value 0.0271, log-rank P 0.0422): 0.628
Number of patients who were censored (time to conversion to CDMS) ([3]; 7 mg once daily, ITT (N = 203)): 164 (80.8%)
Number of patients with conversion to CDMS ([3]; 7 mg once daily, ITT population (N = 203)): 39 (19.2%)
Kaplan-Meier estimates of probability of conversion to CDMS (95% CI) ([3]; 7 mg once daily, at 24 weeks): 0.087
Kaplan-Meier estimates of probability of conversion to CDMS (95% CI) ([3]; 7 mg once daily, at 48 weeks): 0.142
Estimated cumulative rate of conversion to CDMS ([3]; 7 mg once daily, at 108 weeks): 27.6%
Kaplan-Meier estimates of probability of conversion to CDMS (95% CI) ([3]; 7 mg once daily, at 108 weeks): 0.276
Reduction of the risk of conversion to CDMS compared to placebo ([3]; 7 mg once daily, p=0.0271): 37.2%
Hazard ratio (95% CI), time to conversion to CDMS ([3]; 14 mg once daily vs placebo, P-value 0.0087, log-rank P 0.0133): 0.574
Number of patients who were censored (time to conversion to CDMS) [3, 7]: 176 (82.2%)
Number of patients with conversion to CDMS ([3]; 14 mg once daily, ITT population (N = 214)): 38 (17.8%)
Kaplan-Meier estimates of probability of conversion to CDMS (95% CI) ([3]; 14 mg once daily, at 24 weeks): 0.090
Kaplan-Meier estimates of probability of conversion to CDMS (95% CI) ([3]; 14 mg once daily, at 48 weeks): 0.137
Estimated cumulative rate of conversion to CDMS ([3]; 14 mg once daily, at 108 weeks): 24.0%
Kaplan-Meier estimates of probability of conversion to CDMS (95% CI) ([3]; 14 mg once daily, at 108 weeks): 0.240
Reduction of the risk of conversion to CDMS compared to placebo ([3]; 14 mg once daily, p=0.0087): 42.6%
Adjusted annualized relapse rate, Relative risk (95% CI) ([4]; 7 mg once daily vs placebo, P-value 0.0541): 0.669
Adjusted annualized relapse rate, Risk difference (95% CI) ([4]; 7 mg once daily vs placebo, P-value 0.0576): −0.094
Unadjusted annualized relapses rate ([4]; 7 mg once daily): 0.209
Number of patients with ≧1 relapses: Yes ([4]; 7 mg once daily, ITT (N = 203)): 42 (20.7%)
Total number of relapses ([4]; 7 mg once daily, 258.5 patient-years followed): 54
Number of patients with ≧1 relapses: No ([4]; 7 mg once daily): 161 (79.3%)
Number of relapses: 0 (patients) ([4]; 7 mg once daily): 161 (79.3%)
Number of relapses: 1 (patients) ([4]; 7 mg once daily): 33 (16.3%)
Number of relapses: 2 (patients) ([4]; 7 mg once daily): 7 (3.4%)
Number of relapses: >=3 (patients) ([4]; 7 mg once daily): 2 (1.0%)
Risk reduction of on-treatment adjusted ARR relative to placebo ([4]; 7 mg once daily, p=0.0541): 33.1%
Adjusted annualized relapse rate, Relative risk (95% CI) ([4]; 14 mg once daily vs placebo, P-value 0.0579): 0.681
Adjusted annualized relapse rate, Risk difference (95% CI) ([4]; 14 mg once daily vs placebo, P-value 0.0628): −0.091
Unadjusted annualized relapses rate ([4]; 14 mg once daily): 0.208
Number of patients with ≧1 relapses: Yes [4, 7]: 45 (21.0%)
Total number of relapses ([4]; 14 mg once daily, 288.9 patient-years followed): 60
Number of patients with ≧1 relapses: No ([4]; 14 mg once daily): 169 (79.0%)
Number of relapses: 0 (patients) ([4]; 14 mg once daily): 169 (79.0%)
Number of relapses: 1 (patients) ([4]; 14 mg once daily): 33 (15.4%)
Number of relapses: 2 (patients) ([4]; 14 mg once daily): 10 (4.7%)
Number of relapses: >=3 (patients) ([4]; 14 mg once daily): 2 (0.9%)
Risk reduction of on-treatment adjusted ARR relative to placebo ([4]; 14 mg once daily, p=0.0579): 31.9%
